Assay results as given in ChEMBL document CHEMBL1135908, “Synthesis and biological evaluation of cycloalkylidene carboxylic acids as novel effectors of Ras/Raf interaction” (J Med Chem, 2002).

Test: Cytotoxicity of compound towards Y190 yeast cells
Format: functional, cell-based
Settings: Saccharomyces cerevisiae

SMILES | EC50
COc1ccc(C2CCC(=C(C)C(=O)O)CC2)cc1 (stereo not drawn) | 130 µM
O=CC=C1CCCCCC1 | > 300 µM
O=C(O)C=C1CCCC1 | > 300 µM
CC(C(=O)O)=C1CCC(C(C)(C)C)CC1 (stereo not drawn) | 81 µM
CC(C(=O)O)=C1CCCC1 | > 300 µM
O=C(O)C=C1CCCCCC1 | > 300 µM
CCCC1CCC(=C(C)C(=O)O)CC1 (stereo not drawn) | 74 µM
CC(C(=O)O)=C1CCC(c2ccccc2)CC1 (stereo not drawn) | 143 µM
C/C(C(=O)O)=C1\CCCC(C)C1 (stereo not drawn) | > 300 µM
CCC1CCC(=C(C)C(=O)O)CC1 (stereo not drawn) | 125 µM
CC(C(=O)O)=C1CCCCC1 | > 300 µM
CC(C(=O)O)=C1CCCCCC1 | > 300 µM
CC(C(=O)O)=C1CCC(C)CC1 (stereo not drawn) | > 300 µM
